Measured values as given in the METLIN SMRT retention time set (Domingo-Almenara et al. 2019).

Experiment: gradient 5% acetonitrile 3 min, to 50% in 2 min, to 85% in 15 min, held 3 min, 100 µL/min
Settings: column: Zorbax Extend-C18 2.1 x 50 mm; eluents: water / acetonitrile, 0.1% formic acid
Summary of the method: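 Mixtures of ~100 pure standards were chromatographed on a Zorbax Extend-C18 column (2.1 × 50 mm, 1.8 μm) at 100 μL/min using water and acetonitrile, each with 0.1% formic acid. Detection used a quadrupole time-of-flight mass spectrometer in positive and negative ionization mode, and data collection spanned 3 months. Retention time was obtained from adduct peaks picked computationally and each checked manually.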

RP-LC retention time	Structure (SMILES)
688 s	Cc1cc(C)n(Cc2c(C(=O)NCC3Cn4cccc4C(=O)N3C)noc2C)n1 (centres undefined)
921 s	CC(C(=O)N1CCN(c2cc(-c3ccc(Cl)cc3)[nH]n2)CC1)c1ccccc1 (centres undefined)
991 s	CC(C)c1noc(N2CCC(COc3ccc(-c4ccc(S(C)(=O)=O)cc4)nc3)CC2)n1
703 s	COc1ccc(-c2cc3n(n2)CCCN(C(=O)C2CCOC2)C3)cc1 (centres undefined)
592 s	Cc1nn(C(C)C(=O)NCCCN2CCN(C)CC2)c(=O)c2c(C)n(-c3ccccc3)nc12 (centres undefined)
818 s	Cc1cccc(NC(=O)C2CCN(S(=O)(=O)c3cc(C(=O)N4CCCC4)cs3)CC2)c1C
903 s	O=C(CCc1nnc2c(N3CCCCC3)nc3ccccc3n12)NCc1ccccc1F
664 s	COc1ccc(CNC(=O)C2CCN(c3cnc4nccnc4c3)CC2)cc1
698 s	CCNC(=O)N1CCCC1c1nc(-c2ccccc2OC)no1 (centres undefined)
1040 s	COc1ccc(Cl)cc1NC(=O)N1CCCC(c2nnc(-c3ccccc3F)s2)C1 (centres undefined)
606 s	Cc1ccc(C(=O)NC2CCN(c3ncnc4c3CCC4)C2)s1 (centres undefined)
604 s	Cc1nc2cc(N3CCCC(C(=O)O)C3)cnc2nc1C (centres undefined)
562 s	CCOC(=O)N1CCN(c2c(N3CCN(c4ccccn4)CC3)c(=O)c2=O)CC1
640 s	CCc1nc2cc3c(cc2n1CC(=O)Nc1ccc(OC)cc1)OCCO3
1350 s	COc1ccc(Cl)cc1NS(=O)(=O)c1cc(-c2nc(C(C)(C)C)cs2)cs1
700 s	COc1ccc(OC)c(CNC(=O)c2cnc(OC)nc2)c1
951 s	O=C(c1ccc(F)c(F)c1)N1CCc2nc(-c3ccccc3)ncc2C1
772 s	CCOc1ccc2nc(NC(=O)C3CCN(S(=O)(=O)c4cn(C)c(C)n4)CC3)sc2c1
669 s	CSc1ccc(CNC(=O)c2ccc3ncnc(N4CCCC4)c3c2)cc1
660 s	COC(=O)C1CCN(c2ccnc3c2c(=O)n(C)c(=O)n3C)CC1
594 s	CCC(=O)Nc1ccc2nc(N3CCN(CC(=O)Nc4c(C)cccc4C)CC3)cc(C(=O)O)c2c1
754 s	CCNC(=O)Nc1ccc2c(c1)CN(S(=O)(=O)Cc1ccccc1)CCO2
899 s	Cc1ccc(C)c(N(C)C(=O)C2CCCN(c3ncnc4c3nc3n4CCCCC3)C2)c1 (centres undefined)
740 s	Cc1cc2[nH]c(C(=O)Nc3ccc(F)c(F)c3)c(CN3CCOCC3)c2s1

RP-LC retention time	Structure (SMILES)
856 s	COc1ccccc1N1CCN(C(=O)c2cn(-c3cc(N4CCCCC4)ncn3)cn2)CC1
645 s	O=C(NCCN1CCCC1)C1CCN(c2nccnc2Sc2ccccc2)CC1
839 s	COc1cccc(CNC(=O)C2(C)CCCN(C(=O)Nc3ccccc3)C2)c1 (centres undefined)
611 s	O=C(Nc1ccc2c(c1)OCCO2)N1CCCCCC1CN1CCOCC1 (centres undefined)
587 s	CCCCN1CCN(Cc2nc(-c3ccc(N4CCOCC4)nc3)no2)CC1
743 s	COc1ccc(C(=O)N2C[C@H](c3nc(-c4ccncc4)no3)[C@@H](C)C2)c(OC)c1
652 s	Cn1cc(S(=O)(=O)N2CCCC2)cc1C(=O)N1CCn2c1nc1ccccc12
1110 s	Cc1cc(C)cc(NC(=O)N2CCCC2c2nc(-c3ccccc3C)no2)c1 (centres undefined)
621 s	CCC(C)NC(=O)N1CCN(c2cc(-c3ccc(OC)c(OC)c3)ncn2)CC1 (centres undefined)
602 s	CCCNC(=O)N1CCN(c2nc3c(s2)CN(C(=O)CC)CC3)CC1
816 s	Cc1noc(C)c1S(=O)(=O)N1CCC[C@H](n2c(=O)n(C)c3cccnc32)C1
765 s	O=C(CCn1cnc2cc(-c3noc(-c4cccc(F)c4)n3)ccc21)N1CCCC1
609 s	CC(=O)Nc1ccc(NC(=O)c2cc3sc(C)c(CN4CCCCC4)c3[nH]2)cc1
632 s	O=S(=O)(Cc1cccc(F)c1)N1CCC(C2CCNC2)CC1 (centres undefined)
866 s	O=C(Cn1nc(N2CCOCC2)c2ccccc2c1=O)Nc1ccc(Cl)cc1F
628 s	CN(C)c1ccc(CNC(=O)c2ccc3c(c2)N(C)C(=O)C2CCCCN32)cc1 (centres undefined)
768 s	COc1cccc(N2CCN(c3ccnc(SCC(=O)Nc4ccc(F)cc4)n3)CC2)c1
738 s	CCS(=O)(=O)N1CCC(C(=O)NCCc2csc(-c3cccs3)n2)CC1
806 s	Cc1ccc(S(=O)(=O)N2CCC(c3cc4n(n3)CCCN(C)C4=O)CC2)cc1C
780 s	Cn1nc(-c2nc(-c3ccccc3)no2)c2c1CCN(C(=O)NC(C)(C)C)C2
726 s	CCOc1cc(=O)n2c(c1C(=O)Nc1ccc(F)cc1F)CCCC2
635 s	COc1ccc(CNC(=O)Cn2cc(-c3nnc(C)o3)ccc2=O)cc1
566 s	O=C(NCCN1CCCCC1)c1csc(-c2ccnc(N3CCOCC3)c2)n1

Further lines, the compound ahead of its results:

Structure (SMILES)	RP-LC retention time
CCN(CC)S(=O)(=O)c1cc(-c2nnc(-c3cccc(C)c3)o2)ccc1Cl	1200 s
Cc1ccc(-c2nc3ncccn3c2Nc2ccc(Cl)cc2)cc1	827 s
CC(C)NC(=O)N(C1CC1)C1CCOC2(CCN(C(=O)C3(c4ccccc4)CC3)CC2)C1 (centres undefined)	865 s
CCc1nc2c(NC(=O)NCc3ccccc3)cccn2n1	778 s
COc1ccc(-c2nc(NCc3ccc(C)o3)c3ccccc3n2)cc1	784 s
CC(C)n1c(=O)oc2cc(-c3noc(CCc4ccccc4)n3)ccc21	1140 s
O=C(CSc1nc(-c2ccccc2)c(NC(=O)c2cccs2)s1)NC1CC1	782 s
CC(C)NC(=O)CN1C(=O)CC(c2ccc(Br)s2)=Nc2ccccc21	929 s
COc1ccc(Cc2nc3ccccc3n2CC(=O)N2CCCCCC2)cc1OC	653 s
C=CCn1nc2ccc(S(=O)(=O)N3CCC(C)CC3)cn2c1=O	843 s
Cc1nn(CC(=O)NC2CCCc3ccccc32)c(=O)c2c(C)n(-c3ccccc3)nc12 (centres undefined)	937 s
COc1ccc(NC(=O)Cc2nnc3ccc(C(=O)Nc4ccccc4)cn23)cc1	749 s
Cc1cc(NC(=O)c2cccn2-c2cccnc2)ccc1Br	881 s
N#Cc1cccc(C(=O)N2CCOc3ccccc32)c1	843 s
Cc1ccn2cc(-c3ccc(NC(=O)c4ccc(Br)o4)cc3)nc2n1	647 s
Cc1cccc(-c2noc(CSc3nc4cc5c(cc4c(=O)n3Cc3ccccc3)OCO5)n2)c1	1330 s
CCOc1ccc(-n2c(=O)c3sccc3n(Cc3nc(-c4ccccc4OC)no3)c2=O)cc1	910 s
COC(=O)C1=C(C)NC(C)=C(C(=O)OCCSc2ccccc2)C1C (centres undefined)	1080 s
CCSc1nc2ccc(NS(=O)(=O)c3cc(F)ccc3F)cc2s1	1020 s
O=C(Cn1c(=O)c(S(=O)(=O)c2ccccc2)cc2ccccc21)NCc1ccccc1	858 s
Cc1ccc(C(=O)N2CCC3(CC2)N=C(c2ccc(Cl)cc2)NO3)cc1	895 s

Structure (SMILES)	RP-LC retention time
CCN1C(=O)C2(CCN(S(=O)(=O)c3ccc(C)c(F)c3)CC2)c2ccccc21	1120 s
CC(=O)Nc1ccc(C2(C(=O)NCc3ccccc3C)CCC2)cc1	791 s
Cc1ccc(S(=O)(=O)N2CCc3nc[nH]c3C2)cc1C	611 s
Cn1nc(-c2cccc(NC(=O)c3ccc4ccccc4n3)c2)ccc1=O	829 s
Cc1cc(NC(=O)Cn2cnc3c(oc4ccccc43)c2=O)no1	668 s
COc1ccc(-c2nc(C)cc(C)c2CNC(=O)C(C)(C)C)cc1	613 s
CCOC(=O)COC(=O)c1cn(-c2ccc(F)cc2)c(=O)c2ccccc12	1030 s
Cc1nn(C)c(C)c1S(=O)(=O)N1CCC(Cc2nncn2-c2ccccc2)CC1	671 s
Cc1ccccc1S(=O)(=O)N1CCC(Cc2nncn2-c2ccccc2)CC1	827 s
O=C(COc1ccc(Cl)cc1)Nc1nc2ccc([N+](=O)[O-])cc2s1	974 s
O=C(Nc1nc2ccc(F)cc2s1)c1ccccc1Br	900 s
N#Cc1ccc(CN2CCC(F)(F)C(COCc3cccnc3)C2)cc1 (centres undefined)	575 s
COc1ccc(C)cc1NC(=O)N1CCC2(CC1)NC(=O)c1ccc(F)cc1N2C	777 s
CCOC(=O)C1=CN(Cc2ccccc2)C=C(C(=O)OCC)C1c1ccccc1	1130 s
COc1ccc(Nc2n[nH]nc2C(=O)Nc2ccccc2Br)cc1	1050 s
COCCN1C(=O)CS(=O)(=O)C12CCN(C(=O)C1(c3ccccc3)CC1)CC2	685 s
COC(=O)c1ccccc1NC(=O)N(Cc1cc(=O)[nH]c2ccccc12)C(C)C	831 s
COc1ccc(-c2ccnc3nc(-c4ccccc4OC)nn23)cc1OC	804 s
Cc1cc2nn(CC(=O)Nc3ccc(C(C)C)cc3)c(=O)n2c(-c2ccccc2)n1	862 s
CCCCn1cc(S(=O)(=O)Nc2cccc(C)c2)c2cccnc21	976 s
O=C(CSc1nc2scc(-c3ccccc3)c2c(=O)[nH]1)c1ccccc1	936 s
